Experimental findings from patent publication US11691960B2, “2-[thiophen-2-yl)formamido]-N-(phenyl)-2-methylpropanamide derivatives and the use thereof as medicament” (Boehringer Ingelheim International GmbH, priority 2020, dated 2023) are described below.

Series [1] is described as follows: Assay F: tissue distribution in rat after oral application. The class given is in vivo. The source says: (§1) In order to estimate the amount of administered drug to enter the brain, the brain to plasma ratio is used as surrogate parameter. As efflux transporters (e.g. P-gp) are located at the blood-brain barrier, compounds acting as substrates will be actively transported out of the brain. As these efflux transporters are not expressed in muscle tissue, the relative distribution ratio of compound between muscle and brain tissue can be used as indication for an efflux in vivo in rats or mice. In case there is no in vivo efflux detectable (in rats/mice) and in case there is no efflux in vitro (MDCK-MDR1 (P-gp)), a brain exposure in patients can be expected [see Table 7 for comparison of in vitro efflux data (MDCK-MDR1 assay) and in vivo efflux data (tissue distribution in rat/mouse after oral application)].
(§2) Assay F. Determination of Tissue Distribution in Rat/Mouse After Oral Application of Compounds
Male Han Wistar rats or C57BL/6NRj mice were orally dosed with 10 μmol/kg of compound to be investigated, suspended in 0.5% Natrosol/0.015% Tween80. Blood was collected in K3EDTA containing vials from the sublingual vein in short time Isoflurane anesthesia in rat or from the saphenous vein in conscious mice at […], 0.25, 0.5, 1, 2, 3, 4, 8 and 24 hours post administration. Subsequently, plasma was prepared by centrifugation for 5 min at 5000 rpm and stored at −20° C.
Tissues and CSF were sampled in anaesthetized animals. CSF was collected from the cisterna magna. Following exsanguination a femoral muscle sample was collected. Cranium and the dura matter were removed and the complete brain was collected. Before transfer of the muscle and brain sample to pre-weight homogenization devices (Precellys®) the tissues were rinsed with saline and blotted dry.
For homogenization, four parts (v/w) homogenization buffer (37.5% acetonitrile, 37.5% methanol, 25% water) were added. Tissues were homogenized with a Precellys® Evolution homogenizer. Five μL of the homogenate were added to 70 μL of a 1 to 1 (v/v) mixture of acetonitrile and methanol and frozen for at least 10 min at −18° C.
For final sample preparation, the sample was centrifuged at 4000 rpm for 1 min, and an aliquot of the resulting supernatant (30 μL) was mixed with 170 μL formic acid prior to injection to LC-MS. Calibration curves were prepared accordingly in rat and mouse plasma, respectively. All animal care and experimental procedures at Boehringer Ingelheim were conducted in compliance with the German and European Animal Welfare Act (EU Directive 2010/63/EU) and were approved by the Regierungspräsidium Tübingen as the responsible local German authority (reference number 35/9185.81-8/14-009-G).

Another series deals with human hepatocytes. The series is described as follows: Assay D: metabolic stability in human hepatocytes. It is filed as in vitro ADME. How it is done: Assay D. Assessment of Metabolic Stability in Human Hepatocytes
The metabolic degradation of the test compound is assayed in a hepatocyte suspension. After recovery from cryopreservation, human hepatocytes are incubated in Dulbecco's modified eagle medium supplemented with 3.5 μg glucagon/500 mL, 2.5 mg insulin/500 mL and 3.75 mg/500 mL hydrocortisone) containing 5% or 50% human serum or in absence of serum.
Following a 30 min preincubation in a cell culture incubator (37° C., 10% CO2), 5 μl of test compound solution (80 μM; derived from a 2 mM DMSO stock solution by dilution 1:25 with medium) are added into 395 μl hepatocyte suspension, resulting in a final cell density of 1 Mio cells/mL, a final test compound concentration of 1 μM, and a final DMSO concentration of 0.05%.
The cells are incubated for six hours (incubator, orbital shaker) and samples (25 μl) are removed from the incubation after 0, 0.5, 1, 2, 4 and 6 hours. Samples are transferred into acetonitrile and pelleted by centrifugation (5 min). The supernatant is transferred to a new 96-deepwell plate, evaporated under nitrogen and resuspended prior to analysis of decline of parent compound by HPLC-MS/MS.
CLint is calculated as follows: CL_INTRINSIC=k/CD×1000/60 k: slope of the regression line for parent decline [h^−1], CD: cell density of vital cells [10e6 cells/mL],
The calculated in vitro hepatic intrinsic clearance is scaled up to the intrinsic in vivo hepatic Clearance and used to predict hepatic in vivo blood clearance (CL) by the use of a liver model (well stirred model): CL_INTRINSIC_INVIVO [ml/min/kg]=(CL_INTRINSIC [μL/min/10e6 cells]×hepatocellularity [10e6 cells/g liver]×liver factor [g/kg bodyweight])/1000 CL[ml/min/kg]=CL_INTRINSIC_INVIVO [ml/min/kg]×hepatic blood flow [ml/min/kg]/(CL_INTRINSIC_INVIVO[ml/min/kg]+hepatic blood flow [ml/min/kg])
Results are expressed as percentage of hepatic blood flow: QH[%]=CL[ml/min/kg]/hepatic blood flow [ml/min/kg])
Hepatocellularity, human: 120×10e6 cells/g liver
Liver factor, human: 25.7 g/kg bodyweight
Blood flow, human: 20.7 ml/(min×kg)

Series [2] in a line: Assay F: tissue distribution in mouse after oral application. It is filed as in vivo.
Description: as §1, §2
Male Han Wistar rats or C57BL/6NRj mice were orally dosed with 10 μmol/kg of compound to be investigated, suspended in 0.5% Natrosol/0.015% Tween80. Blood was collected in K3EDTA containing vials from the sublingual vein in short time Isoflurane anesthesia in rat or from the saphenous vein in conscious mice at […], 0.25, 0.5, 1, 2, 3, 4, 8 and 24 hours post administration. Subsequently, plasma was prepared by centrifugation for 5 min at 5000 rpm and stored at −20° C. […]

Setting [3] is: oral 10 μmol/kg, muscle/brain tissue distribution.

As to `CC(C)(NC(=O)c1ccc(Cl)s1)C(=O)Nc1ccc(Br)cc1` [Example 4, 2-[(5-chlorothiophen-2-yl)formamido]-N-(4-bromophenyl)-2-methylpropanamide], in series [1] (after oral application), the “in vivo efflux (in words)” value was “neither in vitro nor in vivo efflux”. Moreover, the “in vivo efflux (Assay F)” value in series [1] (setting [3]) was 0.50 (rat). In the series with human hepatocytes, the “metabolic stability in human hepatocytes (in words)” value is reported as “metabolically stable”.
Turning to `CC(C)(NC(=O)c1ccc(Cl)s1)C(=O)Nc1ccc(Cl)c(F)c1` [Example 3, 2-[(5-chlorothiophen-2-yl)formamido]-N-(4-chloro-3-fluorophenyl)-2-methylpropanamide], the “in vivo efflux (in words)” value in series [2] (after oral application) is given as “neither in vitro nor in vivo efflux”. The “in vivo efflux (Assay F)” value in series [2] (setting [3]) is given as 0.60 (mouse). For the same compound, the “metabolic stability in human hepatocytes (in words)” value in the series on human hepatocytes is “metabolically stable”.
